{
  "source": "patent US20220168315A1",
  "about": "“COMPOUNDS AND THERAPEUTIC USES THEREOF” (priority 2019, published 2022)",
  "data": [
    {"target": "T1, PIKfyve (Homo sapiens, UniProt Q9Y2I7)", "T1 construct": "T7 phage fusion (kinase-tagged phage) or DNA tag for qPCR; made in house; host or cells: E. coli BL21-derived host (T7 phage) for most kinases, HEK-293 for the rest", "T1 sequence (Q9Y2I7 whole entry, the tested form may be a part)": "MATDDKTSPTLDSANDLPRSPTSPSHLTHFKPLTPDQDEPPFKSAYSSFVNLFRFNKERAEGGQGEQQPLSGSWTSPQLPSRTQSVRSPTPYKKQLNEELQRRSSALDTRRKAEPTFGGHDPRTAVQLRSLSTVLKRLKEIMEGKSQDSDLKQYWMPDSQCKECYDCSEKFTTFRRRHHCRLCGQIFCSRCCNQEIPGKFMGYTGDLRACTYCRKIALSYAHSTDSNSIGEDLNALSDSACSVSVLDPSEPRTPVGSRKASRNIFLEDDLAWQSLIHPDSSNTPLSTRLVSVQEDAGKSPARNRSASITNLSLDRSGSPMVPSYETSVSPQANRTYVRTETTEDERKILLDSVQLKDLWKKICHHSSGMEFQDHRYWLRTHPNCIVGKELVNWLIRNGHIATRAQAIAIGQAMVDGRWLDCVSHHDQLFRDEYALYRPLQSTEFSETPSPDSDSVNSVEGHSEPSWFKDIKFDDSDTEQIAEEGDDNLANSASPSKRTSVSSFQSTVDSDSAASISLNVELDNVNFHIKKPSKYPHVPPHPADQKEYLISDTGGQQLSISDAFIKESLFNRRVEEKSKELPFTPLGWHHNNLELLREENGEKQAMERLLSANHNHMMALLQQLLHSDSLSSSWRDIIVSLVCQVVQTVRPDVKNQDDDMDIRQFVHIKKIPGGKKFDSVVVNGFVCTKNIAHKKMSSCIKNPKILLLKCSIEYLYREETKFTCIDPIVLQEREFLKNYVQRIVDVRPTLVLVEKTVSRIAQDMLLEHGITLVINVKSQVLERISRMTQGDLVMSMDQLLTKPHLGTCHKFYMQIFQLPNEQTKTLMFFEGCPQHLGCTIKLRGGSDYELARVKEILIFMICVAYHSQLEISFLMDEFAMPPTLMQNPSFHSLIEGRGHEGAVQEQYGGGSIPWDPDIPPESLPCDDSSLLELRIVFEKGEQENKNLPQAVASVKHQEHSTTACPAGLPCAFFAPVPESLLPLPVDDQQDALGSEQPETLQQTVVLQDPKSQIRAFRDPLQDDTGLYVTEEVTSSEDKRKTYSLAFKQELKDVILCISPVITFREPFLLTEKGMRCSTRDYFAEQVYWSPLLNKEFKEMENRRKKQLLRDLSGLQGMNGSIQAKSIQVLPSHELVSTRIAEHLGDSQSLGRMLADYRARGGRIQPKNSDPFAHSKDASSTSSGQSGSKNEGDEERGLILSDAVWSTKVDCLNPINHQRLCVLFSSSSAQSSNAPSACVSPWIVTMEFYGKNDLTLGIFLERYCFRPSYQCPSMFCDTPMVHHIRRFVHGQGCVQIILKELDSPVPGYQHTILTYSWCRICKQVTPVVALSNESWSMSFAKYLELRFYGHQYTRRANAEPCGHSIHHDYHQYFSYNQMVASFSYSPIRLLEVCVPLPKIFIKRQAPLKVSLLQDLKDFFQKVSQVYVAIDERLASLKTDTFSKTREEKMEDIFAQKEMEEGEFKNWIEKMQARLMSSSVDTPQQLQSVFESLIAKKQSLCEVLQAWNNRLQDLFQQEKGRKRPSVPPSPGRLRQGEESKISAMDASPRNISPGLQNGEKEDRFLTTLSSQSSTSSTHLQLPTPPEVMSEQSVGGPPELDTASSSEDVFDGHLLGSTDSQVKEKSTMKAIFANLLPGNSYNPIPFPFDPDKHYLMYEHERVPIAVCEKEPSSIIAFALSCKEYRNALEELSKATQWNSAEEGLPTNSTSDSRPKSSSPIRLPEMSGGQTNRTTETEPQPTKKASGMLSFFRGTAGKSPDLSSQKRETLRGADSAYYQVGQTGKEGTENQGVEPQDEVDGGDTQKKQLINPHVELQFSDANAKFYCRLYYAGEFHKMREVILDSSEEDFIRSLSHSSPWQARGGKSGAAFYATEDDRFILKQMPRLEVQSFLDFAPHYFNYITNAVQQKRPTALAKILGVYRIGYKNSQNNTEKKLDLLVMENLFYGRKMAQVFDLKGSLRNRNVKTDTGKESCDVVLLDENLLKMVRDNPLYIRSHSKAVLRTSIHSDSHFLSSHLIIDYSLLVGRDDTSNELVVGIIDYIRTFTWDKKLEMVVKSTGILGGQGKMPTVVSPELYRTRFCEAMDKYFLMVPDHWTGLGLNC", "assay": "Kinase binding assay (kinase-tagged T7 phage, affinity beads, qPCR readout), Kd determination", "conditions": "11-point 3-fold dilution series", "description": "Kinase assays. For most assays, kinase-tagged T7 phage strains were prepared in an E. coli host derived from the BL21 strain. E. coli were grown to log-phase and infected with T7 phage and incubated with shaking at 32° C. until lysis. The lysates were centrifuged and filtered to remove cell debris. The remaining kinases were produced in HEK-293 cells and subsequently tagged with DNA for qPCR detection. Streptavidin-coated magnetic beads were treated with biotinylated small molecule ligands for 30 minutes at room temperature to generate affinity resins for kinase assays. The liganded beads were blocked with excess biotin and washed with blocking buffer (SeaBlock (Pierce), 1% BSA, 0.05% Tween 20, 1 mM DTT) to remove unbound ligand and to reduce non-specific binding. Binding reactions were assembled by combining kinases, liganded affinity beads, and test compounds in 1× binding buffer (20% SeaBlock, 0.17×PBS, 0.05% Tween 20, 6 mM DTT). Test compounds were prepared as 111× stocks in 100% DMSO. Kds were determined using an 11-point 3-fold compound dilution series with three DMSO control points. All compounds for Kd measurements are distributed by acoustic transfer (non-contact dispensing) in 100% DMSO. The compounds were then diluted directly into the assays such that the final concentration of DMSO was 0.9%. All reactions performed in polypropylene 384-well plate. Each was a final volume of 0.02 ml. The assay plates were incubated at room temperature with shaking for 1 hour and the affinity beads were washed with wash buffer (1×PBS, 0.05% Tween 20). The beads were then re-suspended in elution buffer (1×PBS, 0.05% Tween 20, 0.5 μM non-biotinylated affinity ligand) and incubated at room temperature with shaking for 30 minutes. The kinase concentration in the eluates was measured by qPCR.\nAn 11-point 3-fold serial dilution of each test compound was prepared in 100% DMSO at 100× final test concentration and subsequently diluted to 1× in the assay (final DMSO concentration=1%). Most Kds were determined using a compound top concentration=30,000 nM. If the initial Kd determined was <0.5 nM (the lowest concentration tested), the measurement was repeated with a serial dilution starting at a lower top concentration.", "units": {"Kd": "nM"}, "values": [
      {"molecule": "CCNC(=O)N1Cc2nc(N/N=C/c3cccc(C)c3)nc(N3CCOCC3)c2C1", "note": "[Example 1, N-ethyl-4-morpholino-2-[(2E)-2-(m-tolylmethylene)hydrazino]-5,7-dihydropyrrolo[3,4-d]pyrimidine-6-carboxamide]", "Kd": "5 to 10"},
      {"molecule": "Cc1cccc(/C=N/Nc2nc3c(c(N4CCOCC4)n2)CN(C(=O)Nc2ccc(F)cc2)C3)c1", "note": "[Example 2, N-(4-Fluorophenyl)-4-morpholino-2-[(2E)-2-(m-tolylmethylene)hydrazino]-5,7-dihydropyrrolo[3,4-d]pyrimidine-6-carboxamide]", "Kd": "5 to 10"},
      {"molecule": "Cc1cccc(/C=N/Nc2nc3c(c(N4CCOCC4)n2)CN(C(=O)Nc2cccnc2)C3)c1", "note": "[Example 3, 4-Morpholino-2-[(2E)-2-(m-tolylmethylene)hydrazino]-N-(3-pyridyl)-5,7-dihydropyrrolo[3,4-d]pyrimidine-6-carboxamide]", "Kd": "1 to 5"},
      {"molecule": "Cc1cccc(/C=N/Nc2nc3c(c(N4CCOCC4)n2)CN(C(=O)NC2CCCC2)C3)c1", "note": "[Example 4, N-cyclopentyl-4-morpholino-2-[(2E)-2-(m-tolylmethylene)hydrazino]-5,7-dihydropyrrolo[3,4-d]pyrimidine-6-carboxamide]", "Kd": "1 to 5"},
      {"molecule": "Cc1cccc(/C=N/Nc2nc3c(c(N4CCOCC4)n2)CN(C(=O)NC2CCC2)C3)c1", "note": "[Example 5, N-cyclobutyl-4-morpholino-2-[(2E)-2-(m-tolylmethylene)hydrazino]-5,7-dihydropyrrolo[3,4-d]pyrimidine-6-carboxamide]", "Kd": "1 to 5"},
      {"molecule": "O=C(Nc1cccnc1)N1Cc2nc(N/N=C/c3cccc(O)c3)nc(N3CCOCC3)c2C1", "note": "[Example 6, 2-[(2E)-2-[(3-hydroxyphenyl)methylene]hydrazino]-4-morpholino-N-(3-pyridyl)-5,7-dihydropyrrolo[3,4-d]pyrimidine-6-carboxamide]", "Kd": "60 to 100"},
      {"molecule": "O=C(Nc1cccnc1)N1Cc2nc(N/N=C/c3cccc(Cl)c3)nc(N3CCOCC3)c2C1", "note": "[Example 7, 2-[(2E)-2-[(3-chlorophenyl)methylene]hydrazino]-4-morpholino-N-(3-pyridyl)-5,7-dihydropyrrolo[3,4-d]pyrimidine-6-carboxamide]", "Kd": "10 to 60"},
      {"molecule": "O=C(Nc1cccnc1)N1Cc2nc(N/N=C/c3cccc(C(F)(F)F)c3)nc(N3CCOCC3)c2C1", "note": "[Example 8, 4-morpholino-N-(3-pyridyl)-2-[(2E)-2-[[3-(trifluoromethyl)phenyl]methylene]hydrazino]-5,7-dihydropyrrolo[3,4-d]pyrimidine-6-carboxamide]", "Kd": "100 to 2000"},
      {"molecule": "Cc1cccc(/C=N/Nc2nc3c(c(N4CCOCC4)n2)CN(Cc2cccnc2)C3)c1", "note": "[Example 10, 4-morpholino-N-[(E)-m-tolylmethyleneamino]-6-(3-pyridylmethyl)-5,7-dihydropyrrolo[3,4-d]pyrimidin-2-amine]", "Kd": "1 to 5"},
      {"molecule": "Cc1cccc(/C=N/Nc2nc3c(c(N4CCOCC4)n2)CN(Cc2ccccn2)C3)c1", "note": "[Example 11, 4-morpholino-N-[(E)-m-tolylmethyleneamino]-6-(2-pyridylmethyl)-5,7-dihydropyrrolo[3,4-d]pyrimidin-2-amine]", "Kd": "10 to 60"},
      {"molecule": "Cc1cccc(/C=N/Nc2nc3c(c(N4CCOCC4)n2)CN(S(=O)(=O)c2cn(C)cn2)C3)c1", "note": "[Example 15, 6-(1-methylimidazol-4-yl)sulfonyl-4-morpholino-N-[(E)-m-tolylmethyleneamino]-5,7-dihydropyrrolo[3,4-d]pyrimidin-2-amine]", "Kd": "≤ 1"},
      {"molecule": "Cc1cccc(/C=N/Nc2nc3c(c(N4CCOCC4)n2)CN(S(=O)(=O)c2cccc(C(=O)O)c2)C3)c1", "note": "[Example 16, 3-[[4-morpholino-2-[(2E)-2-(m-tolylmethylene)hydrazino]-5,7-dihydropyrrolo[3,4-d]pyrimidin-6-yl]sulfonyl]benzoic acid]", "Kd": "1 to 5"},
      {"molecule": "Cc1cccc(/C=N/Nc2nc3c(c(N4CCOCC4)n2)CN(S(=O)(=O)c2ccc(C(=O)O)cc2)C3)c1", "note": "[Example 17, 4-[[4-morpholino-2-[(2E)-2-(m-tolylmethylene)hydrazino]-5,7-dihydropyrrolo[3,4-d]pyrimidin-6-yl]sulfonyl]benzoic acid]", "Kd": "1 to 5"},
      {"molecule": "Cc1cccc(/C=N/Nc2nc3c(c(N4CCOCC4)n2)CN(S(=O)(=O)c2cccnc2)C3)c1", "note": "[Example 19, 4-morpholino-N-[(E)-m-tolylmethyleneamino]-6-(3-pyridylsulfonyl)-5,7-dihydropyrrolo[3,4-d]pyrimidin-2-amine]", "Kd": "1 to 5"},
      {"molecule": "Cc1cccc(/C=N/Nc2nc3c(c(N4CCOCC4)n2)CN(S(=O)(=O)c2c(C)n[nH]c2C)C3)c1", "note": "[Example 20, 6-[(3,5-dimethyl-1H-pyrazol-4-yl)sulfonyl]-4-morpholino-N-[(E)-m-tolylmethyleneamino]-5,7-dihydropyrrolo[3,4-d]pyrimidin-2-amine]", "Kd": "≤ 1"},
      {"molecule": "Cc1cccc(/C=N/Nc2nc3c(c(N4CCOCC4)n2)CN(S(=O)(=O)N(C)C)C3)c1", "note": "[Example 21, N,N-dimethyl-4-morpholino-2-[(2E)-2-(m-tolylmethylene)hydrazino]-5,7-dihydropyrrolo[3,4-d]pyrimidine-6-sulfonamide]", "Kd": "1 to 5"},
      {"molecule": "Cc1cccc(/C=N/Nc2nc3c(c(N4CCOCC4)n2)CN(S(=O)(=O)c2c(C)noc2C)C3)c1", "note": "[Example 22, 6-(3,5-dimethylisoxazol-4-yl)sulfonyl-4-morpholino-N-[(E)-m-tolylmethyleneamino]-5,7-dihydropyrrolo[3,4-d]pyrimidin-2-amine]", "Kd": "1 to 5"},
      {"molecule": "Cc1cccc(/C=N/Nc2nc3c(c(N4CCOCC4)n2)CN(c2ncccn2)C3)c1", "note": "[Example 23, 4-morpholino-N-[(E)-m-tolylmethyleneamino]-6-pyrimidin-2-yl-5,7-dihydropyrrolo[3,4-d]pyrimidin-2-amine]", "Kd": "1 to 5"},
      {"molecule": "Cc1cccc(/C=N/Nc2nc3c(c(N4CCOCC4)n2)CN(c2ccncn2)C3)c1", "note": "[Example 24, 4-morpholino-N-[(E)-m-tolylmethyleneamino]-6-pyrimidin-4-yl-5,7-dihydropyrrolo[3,4-d]pyrimidin-2-amine]", "Kd": "1 to 5"},
      {"molecule": "Cc1cccc(/C=N/Nc2nc3c(c(N4CCOC[C@@H]4C)n2)CN(c2ncccn2)C3)c1", "note": "[Example 25, 4-[(3S)-3-methylmorpholin-4-yl]-N-[(E)-m-tolylmethyleneamino]-6-pyrimidin-2-yl-5,7-dihydropyrrolo[3,4-d]pyrimidin-2-amine]", "Kd": "1 to 5"},
      {"molecule": "Cc1cccc(/C=N/Nc2nc3c(c(N4CCOC[C@H]4C)n2)CN(c2ncccn2)C3)c1", "note": "[Example 26, 4-[(3R)-3-methylmorpholin-4-yl]-N-[(E)-m-tolylmethyleneamino]-6-pyrimidin-2-yl-5,7-dihydropyrrolo[3,4-d]pyrimidin-2-amine]", "Kd": "5 to 10"},
      {"molecule": "Cc1cccc(/C=N/Nc2nc3c(c(N4CCOCC4)n2)CN(C(=O)NC2COC2)C3)c1", "note": "[Example 27, 4-morpholino-2-[(2E)-2-(m-tolylmethylene)hydrazino]-N-(oxetan-3-yl)-5,7-dihydropyrrolo[3,4-d]pyrimidine-6-carboxamide]", "Kd": "1 to 5"},
      {"molecule": "Cc1cccc(/C=N/Nc2nc3c(c(N4CCOCC4)n2)CN(C(=O)NC2CNC2)C3)c1", "note": "[Example 28, N-(azetidin-3-yl)-4-morpholino-2-[(2E)-2-(m-tolylmethylene)hydrazino]-5,7-dihydropyrrolo[3,4-d]pyrimidine-6-carboxamide]", "Kd": "5 to 10"},
      {"molecule": "Cc1cccc(/C=N/Nc2nc3c(c(N4CCOCC4)n2)CCN(S(=O)(=O)c2c(C)n[nH]c2C)C3)c1", "note": "[Example 29, 7-[(3,5-dimethyl-1H-pyrazol-4-yl)sulfonyl]-4-morpholino-N-[(E)-m-tolylmethyleneamino]-6,8-dihydro-5H-pyrido[3,4-d]pyrimidin-2-amine]", "Kd": "5 to 10"},
      {"molecule": "Cc1cccc(-c2cc(O)n(-c3nc(N4CCOCC4)c4sc(-c5ccncc5)cc4n3)n2)c1", "note": "[Example 33, 2-[4-morpholino-6-(4-pyridyl)thieno[3,2-d]pyrimidin-2-yl]-5-(m-tolyl)pyrazol-3-ol methane sulfonate]", "Kd": "≤ 1"},
      {"molecule": "COc1cccc(-c2cc(O)n(-c3nc(N4CCOCC4)c4sc(-c5ccncc5)cc4n3)n2)c1", "note": "[Example 34, 5-(3-methoxyphenyl)-2-[4-morpholino-6-(4-pyridyl)thieno[3,2-d]pyrimidin-2-yl]pyrazol-3-ol]", "Kd": "5 to 10"},
      {"molecule": "Cc1cccc(-c2cc(O)n(-c3nc4c(c(N5CCOCC5)n3)CN(S(=O)(=O)c3c(C)noc3C)C4)n2)c1", "note": "[Example 37, 2-[6-(3,5-dimethylisoxazol-4-yl)sulfonyl-4-morpholino-5,7-dihydropyrrolo[3,4-d]pyrimidin-2-yl]-5-(m-tolyl)pyrazol-3-ol]", "Kd": "100 to 2000"},
      {"molecule": "Cc1cccc(-c2cc(O)n(-c3nc4c(c(N5CCOCC5)n3)CN(C(=O)Nc3cccnc3)C4)n2)c1", "note": "[Example 38, 2-[5-hydroxy-3-(m-tolyl)pyrazol-1-yl]-4-morpholino-N-(3-pyridyl)-5,7-dihydropyrrolo[3,4-d]pyrimidine-6-carboxamide methane sulfonate]", "Kd": "5 to 10"}
    ]}
  ]
}
